One experiment addresses T1, human recombinant HDAC1 (Homo sapiens, UniProt Q13547).
T1 construct: purchased Enzo Life Science, Inc. BML-SE456
The experiment in a line: HDAC1 enzyme activity inhibition (HDAC Fluorimetric Drug Discovery Kit). The experiment is classed as biochemical. Particulars: human recombinant HDAC1; IC50 calculated with GraphPad Prism; read-out: HDAC1. The procedure, abridged:
(§1)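 Fluorimetric deacetylase read-out. 5-fold compound dilutions; […] enzyme, 10 μM substrate; 30° C, 60 min; developer 30 min.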

For another experiment, the target named is T2, human recombinant HDAC6 (Homo sapiens, UniProt Q9UBN7).
T2 construct: purchased Calbiochem Inc. 382180
T2 sequence (Q9UBN7 1-1215): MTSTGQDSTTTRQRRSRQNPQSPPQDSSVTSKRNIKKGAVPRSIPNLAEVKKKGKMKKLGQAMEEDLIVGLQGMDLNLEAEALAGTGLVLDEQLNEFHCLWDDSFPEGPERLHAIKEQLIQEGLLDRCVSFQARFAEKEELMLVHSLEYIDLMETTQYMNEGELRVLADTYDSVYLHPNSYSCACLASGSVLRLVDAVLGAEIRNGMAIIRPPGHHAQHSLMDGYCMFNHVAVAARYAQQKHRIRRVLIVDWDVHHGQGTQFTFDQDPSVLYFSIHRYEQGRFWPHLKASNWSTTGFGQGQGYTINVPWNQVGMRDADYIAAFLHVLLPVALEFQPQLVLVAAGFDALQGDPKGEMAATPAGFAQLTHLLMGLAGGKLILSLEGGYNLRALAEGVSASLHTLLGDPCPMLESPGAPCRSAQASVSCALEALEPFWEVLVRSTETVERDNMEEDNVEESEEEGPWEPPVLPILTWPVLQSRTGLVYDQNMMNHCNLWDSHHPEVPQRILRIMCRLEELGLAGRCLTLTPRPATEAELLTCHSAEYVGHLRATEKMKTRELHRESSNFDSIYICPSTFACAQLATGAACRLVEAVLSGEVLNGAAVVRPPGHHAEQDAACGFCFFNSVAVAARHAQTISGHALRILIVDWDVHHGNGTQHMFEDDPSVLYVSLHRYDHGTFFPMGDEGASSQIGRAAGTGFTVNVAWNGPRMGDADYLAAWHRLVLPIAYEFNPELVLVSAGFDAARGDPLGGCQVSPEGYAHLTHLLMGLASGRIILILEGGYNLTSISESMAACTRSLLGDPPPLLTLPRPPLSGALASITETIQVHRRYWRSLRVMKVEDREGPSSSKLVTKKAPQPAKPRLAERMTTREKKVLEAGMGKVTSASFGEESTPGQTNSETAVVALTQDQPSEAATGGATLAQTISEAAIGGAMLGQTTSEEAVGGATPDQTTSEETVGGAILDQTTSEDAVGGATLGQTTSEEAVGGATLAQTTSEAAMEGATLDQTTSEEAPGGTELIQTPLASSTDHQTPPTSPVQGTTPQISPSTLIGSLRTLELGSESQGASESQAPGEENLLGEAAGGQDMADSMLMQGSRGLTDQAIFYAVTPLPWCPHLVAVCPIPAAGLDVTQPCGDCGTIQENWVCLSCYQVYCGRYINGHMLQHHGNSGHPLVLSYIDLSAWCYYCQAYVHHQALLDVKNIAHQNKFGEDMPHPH
The experiment can be described thus: HDAC6 enzyme activity inhibition (HDAC Fluorimetric Drug Discovery Kit). The experiment is classed as biochemical. Particulars: for HDAC6 selectivity (fold): HDAC1 IC50 / HDAC6 IC50; for IC50: human recombinant HDAC6, IC50 calculated with GraphPad Prism. A digest of the protocol:
as §1

The test system of experiment [1] is hippocampal neurons from a Sprague-Dawley (SD) rat fetus. The experiment in a line: Effect of HDAC6-specific inhibitor on axonal transport of mitochondria in amyloid-beta treated neurons. The experiment is classed as cell-based. The conditions noted are these: transport velocity of mitochondria in neuronal axon after normalization; vehicle = 100%, amyloid beta treatment group = 0%; compound treatment for three hours. A digest of the protocol: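 Rat E17-18 hippocampal neurons exposed to amyloid-beta fragments […]; after 24 h (day 8 in vitro) compound added for 3 h, mitochondria stained with MitoTracker Red CMXRos. Confocal imaging every 1 s for 1 min gave per-mitochondrion velocity, normalized vehicle = 100%, amyloid-beta = 0%.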

T1 sequence (Q13547 whole entry): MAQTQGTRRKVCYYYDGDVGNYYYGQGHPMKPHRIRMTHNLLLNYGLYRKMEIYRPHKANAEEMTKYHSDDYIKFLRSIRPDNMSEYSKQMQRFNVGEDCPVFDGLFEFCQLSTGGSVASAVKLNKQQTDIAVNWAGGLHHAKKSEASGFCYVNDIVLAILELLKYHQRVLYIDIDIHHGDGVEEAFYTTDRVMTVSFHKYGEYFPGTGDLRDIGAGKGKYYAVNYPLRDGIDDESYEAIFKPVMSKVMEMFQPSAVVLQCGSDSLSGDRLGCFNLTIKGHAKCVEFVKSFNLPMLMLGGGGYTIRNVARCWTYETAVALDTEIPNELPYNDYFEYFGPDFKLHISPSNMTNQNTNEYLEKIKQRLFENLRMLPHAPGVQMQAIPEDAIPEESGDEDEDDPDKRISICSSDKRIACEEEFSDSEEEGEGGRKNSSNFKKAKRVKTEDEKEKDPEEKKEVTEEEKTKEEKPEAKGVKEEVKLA

For `FC(F)c1nnc(-c2ccc(Cn3cc(-c4ccccc4)nn3)nc2)o1` [Compound 3736, 2-(difluoromethyl)-5-(6-((4-phenyl-1H-1,2,3-triazol-1-yl)methyl)pyridin-3-yl)-1,3,4-oxadiazole], at human recombinant HDAC1, the IC50 is more than 50000 nM. In addition, on human recombinant HDAC6, the “HDAC6 selectivity (fold)” value worked out at 2252 fold and the IC50 is 22.2 nM. Also, the “Velocity distribution (%)” value in experiment [1] was “*** (***, >100%)”.
Take `CC1CCN(Cc2c[nH]c3cc(-c4cn(Cc5ccc(-c6nnc(C(F)F)o6)cc5F)nn4)ccc23)CC1` [Compound 4110, 2-(difluoromethyl)-5-(3-fluoro-4-((4-(3-((4-methylpiperidin-1-yl)methyl)-1H-indol-6-yl)-1H-1,2,3-triazol-1-yl)methyl)phenyl)-1,3,4-oxadiazole]: the IC50 on human recombinant HDAC1 was more than 50000 nM. For the same molecule, on human recombinant HDAC6, the “HDAC6 selectivity (fold)” value was 3030 fold and the IC50 was 16.5 nM. In experiment [1], the “Velocity distribution (%)” value is given as “** (**, 50%˜100%)”.
Consider `Fc1cc(-c2nnc(C(F)F)o2)ccc1Cn1cc(-c2cccc(N3CCN(C4COC4)CC3)c2)nn1` [Compound 4375, 2-(difluoromethyl)-5-(3-fluoro-4-((4-(3-(4-(oxetan-3-yl)piperazin-1-yl)phenyl)-1H-1,2,3-triazol-1-yl)methyl)phenyl)-1,3,4-oxadiazole], for which the IC50 at human recombinant HDAC1 is more than 50000 nM; at human recombinant HDAC6, 35 nM. For the same molecule, the “HDAC6 selectivity (fold)” value on human recombinant HDAC6 was 1428 fold. Further, the “Velocity distribution (%)” value in experiment [1] is “* (*, 0%˜50%)”.
With `FC(F)c1nnc(-c2ccc(Cn3cc(-c4cccc(N5CCOCC5)c4)nn3)nc2)o1` [Compound 3866, 4-(3-(1-((5-(5-(difluoromethyl)-1,3,4-oxadiazol-2-yl)pyridin-2-yl)methyl)-1H-1,2,3-triazol-4-yl)phenyl)morpholin], the IC50 on human recombinant HDAC1 was more than 50000 nM. Further, at human recombinant HDAC6, the “HDAC6 selectivity (fold)” value was 2688 fold and the IC50 is 18.6 nM. For the same molecule, in experiment [1], the “Velocity distribution (%)” value is listed as “** (**, 50%˜100%)”.
On to `CCOC(=O)Nc1cccc(-c2cn(Cc3ccc(-c4nnc(C(F)F)o4)cn3)nn2)c1` [Compound 3826], for which the IC50 at human recombinant HDAC1 was more than 50000 nM. On human recombinant HDAC6, the “HDAC6 selectivity (fold)” value turned out to be 4132 fold and the IC50 was 12.1 nM. In experiment [1], the “Velocity distribution (%)” value is recorded as “* (*, 0%˜50%)”.

These data come from patent publication US20230257372A1 (CHONG KUN DANG PHARMACEUTICAL CORP., priority 2020, published 2023).
